Patent US20120172413A1, “INCREASING LIFESPAN BY MODULATING CRTC EXPRESSION OR LOCALIZATION, AND METHODS OF SCREENING FOR MODULATORS OF SAME” (THE SALK INSTITUTE FOR BIOLOGICAL STUDIES, priority 2009, published 2012)
Entries after “also recorded” stand apart in the source; their conditions may differ. Where a name gives a salt, the structure may show the parent alone.

Columns and labels:
[1] = system: CRTC-1::RFP localization in C. elegans intestinal cells; test: CRTC-1::RFP localization during tricaine time course (microscopy); assay type: in vivo
Description: Except for tricaine time course experiments, worms were in 5 μl anesthetic mounted on 2% agarose pads on glass slides under glass cover slips. All photos were taken using a Zeiss Axiovert microscope & Axiocam. Pictures in FIGS. 2a and 3b used apotome optical sectioning. For the tricaine experiments (FIG. 4a&b), L4 worms were placed in wells of a 96 well plate in 100 μl of tetramisole/M9 with or without tricaine (2 mg/ml). Pictures were taken during time course through the 96 well plate.

[2] = system: CRTC-1::RFP localization in intestinal cells; test: Kinase redundancy assay: CRTC-1::RFP localization after tricaine treatment and removal; assay type: in vivo, C. elegans
Description: Worms were subjected to RNAi for AMPK family kinases from hatch. 24 hours post L4 worms were then picked into M9 with tricaine (2 mg/ml) in wells of a […]. Worms were left on a rotational shaker at 20° C. for 2 hours. Using a glass pipette (Mair, W. A simple yet effective method to manipulate C. elegans in liquid. Worm Breeders Gazette 18 (2009)), worms were then placed onto NG plates seeded with E. coli (0P50). When tricaine solution had evaporated (approx 20 min), worms were picked onto fresh OP50 plates, 5 worms per plate. […] Time=0 was when moved to fresh OP50 plates.

[3] = aak-1 (tm1944), aak-2 (ok524) mutants (AMPK null)

SMILES | effect on CRTC-1 localization ([1]; 0.1 mg/ml in M9 as anesthetic, pilot experiments) | CRTC-1::RFP localization ([1]; CRTC-1::RFP with calcineurin (TAX-6) binding site mutated, 60 minutes of tricaine treatment) | CRTC-1::RFP localization ([1]; tax-6 (ok2065) deletion mutant, up to 2 hours of tricaine treatment) | CRTC-1::RFP localization ([1]; wild type background, intestinal cells, tricaine (2 mg/ml) in M9) | time to CRTC-1::RFP nuclear localization ([1]; wild type background, tricaine added in M9) | re-location of CRTC-1::RFP to the cytosol upon drug removal [2, 3] | tricaine-induced nuclear localization of CRTC-1::RFP [2, 3] | re-location of CRTC-1::RFP to the cytosol upon drug removal ([2]; aak-1 (tm1944), aak-2 (ok524) mutants (AMPK null), listed as Tricaine) | reversibility of CRTC-1 nuclear localization after drug removal ([2]; wild type background)
c1ccc(C2CN3CCSC3=N2)cc1 (stereo not drawn) [tetramisole hydrochloride] | no effect |  |  |  |  |  |  |  | 
CCOC(=O)c1cccc(N)c1 [tricaine] |  | did not shuttle into the nucleus; also recorded: no effect | invariably cytosolic; also recorded: does not respond | rapid nuclear localization | ≤ 30 min | relocated to the cytoplasm | expedited | delayed | reversible within two hours
